We go through 1 substance from US20030073737A1, “Tolerance induction” (priority 2001, published 2003).

The subject of assay [1] is mixed lymphocyte reaction. To be noted: as described in WO 99/50388; cited from earlier work.
Assay [2] concerns donor heart graft. The assay can be described thus: Rat heterotopic heart transplantation, graft survival. To be noted: Lewis/BN rats; i.v. or s.c., daily dose up to 1 mg/kg for 1-12 weeks, e.g. 4 weeks; daily palpation of beating donor heart. In kind it is in vivo. The source says: 1. Rat Heterotopic Heart Transplantation
The strain combination used: Male Lewis (RT^1 haplotype) and BN (RT^1 haplotype). The animals are anaesthetised using inhalational isofluorane. […] The aorta is ligated and divided distal to the first branch and the brachiocephalic trunk is divided at the first bifurcation. The left pulmonary artery is ligated and divided and the right side divided but left open. All other vessels are dissected free, ligated and divided and the donor heart is removed into iced saline.
The recipient is prepared by dissection and cross-clamping of the infra-renal abdominal aorta and vena cava. The graft is implanted with end-to-side anastomoses, using 10/0 monofilament suture, between the donor brachiocephalic trunk and the recipient aorta and the donor right pulmonary artery to the recipient vena cava. The clamps are removed, the graft tethered retroabdominally, the abdominal contents washed with warm saline and the animal is closed and allowed to recover under a heating lamp. Graft survival is monitored by daily palpation of the beating donor heart through the abdominal wall. Rejection is considered to be complete when heart beat stops.

With Tautomycetin, in assay [1], the “inhibition of the mixed lymphocyte reaction” value was “inhibition of the mixed lymphocyte reaction”. Also, the graft survival entry in assay [2] is reported as “Increases of graft survival are obtained beyond treatment time”.
